BindingDB's records for doi:10.3109/14756360903049059 (China Pharmaceutical University, 2010)

Molecular target: T1, 3-oxoacyl-[acyl-carrier-protein] synthase 3 (Mycobacterium tuberculosis (strain ATCC 25618 / H37Rv), UniProt P9WNG3)
T1 sequence (P9WNG3 whole entry): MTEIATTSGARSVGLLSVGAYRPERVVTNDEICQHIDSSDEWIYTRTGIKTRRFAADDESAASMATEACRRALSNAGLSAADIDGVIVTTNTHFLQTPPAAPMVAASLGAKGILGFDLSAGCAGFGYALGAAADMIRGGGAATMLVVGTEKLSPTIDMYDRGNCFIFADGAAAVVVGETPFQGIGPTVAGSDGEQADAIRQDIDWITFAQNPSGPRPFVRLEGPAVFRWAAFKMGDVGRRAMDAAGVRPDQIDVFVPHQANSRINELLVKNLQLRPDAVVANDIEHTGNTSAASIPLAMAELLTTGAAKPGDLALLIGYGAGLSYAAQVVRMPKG
Experiment: 3D-QSAR
Description: The biological activities of the compounds were evaluated in the same laboratory. Biological activities measured as IC50 were converted to pIC50 (−log(IC50)) for use in the 3D-QSAR study.

Structure (SMILES) | IC50 [µM]
CCCCCCCCCCCCCC1(C)SC(=O)C(C)=C1O (centres undefined) [mtFabH inhibitor, 26] | 80
CC1=C(O)C(C)(C#CCc2ccc([N+](=O)[O-])cc2)SC1=O (centres undefined) [mtFabH inhibitor, 6] | 34
COc1ccc(CC2(C)SC(=O)C(C)=C2O)cc1 (centres undefined) [mtFabH inhibitor, 12] | 155
CC1=C(O)C(C)(Cc2ccccc2)SC1=O (centres undefined) [mtFabH inhibitor, 9] | 250
C#CC1(C)SC(=O)C(C)=C1O (centres undefined) [mtFabH inhibitor, 2] | 100
CC1=C(O)C(C)(Cc2cccc(C(=O)c3ccccc3)c2)SC1=O (centres undefined) [mtFabH inhibitor, 40] | 283
COc1ccc(C2(C)SC(=O)C(C)=C2O)cc1 (centres undefined) [mtFabH inhibitor, 13] | 500
CC1=C(O)C(C)(C#CCc2ccc(C#N)cc2)SC1=O (centres undefined) [mtFabH inhibitor, 7] | 7
CC(=O)c1ccc(C#CC2(C)SC(=O)C(C)=C2O)cc1O (centres undefined) [mtFabH inhibitor, 4] | 7
CC(=O)Nc1cccc(-c2ccc(CC3(C)SC(=O)C(C)=C3O)cc2)c1 (centres undefined) [mtFabH inhibitor, 25] | 119
CC1=C(O)C(C)(Cc2ccc(C(F)(F)F)cc2)SC1=O (centres undefined) [mtFabH inhibitor, 27] | 100
COC(=O)c1ccc(CC#CC2(C)SC(=O)C(C)=C2O)cc1 (centres undefined) [mtFabH inhibitor, 5] | 74
CC(=O)c1ccc(C#CC2(C)SC(=O)C(C)=C2O)cc1 (centres undefined) [mtFabH inhibitor, 3] | 4
CC1=C(O)C(C)(C#Cc2ccccc2C#N)SC1=O (centres undefined) [mtFabH inhibitor, 8] | 48
